Measurements as given in PMC9518264, “Design and synthesis of novel quinazolinone-based derivatives as EGFR inhibitors with antitumor activity” (Journal of Enzyme Inhibition and Medicinal Chemistry, 2022).

Assays:
TK-10 = experiment: cells; format: cell-based; settings: Homo sapiens; TK-10; 10 μM; read-out: growth inhibition % (GI%)
HCT-15 = experiment: cells; format: cell-based; settings: Homo sapiens; HCT-15; 10 μM; read-out: growth inhibition % (GI%)
A549/ATCC = experiment: cells; format: cell-based; settings: Homo sapiens; A549/ATCC; 10 μM; read-out: growth inhibition % (GI%)
PC-3 = experiment: cells; format: cell-based; settings: Homo sapiens; PC-3; 10 μM; read-out: growth inhibition % (GI%)
NCI-H322M = experiment: cells; format: cell-based; settings: Homo sapiens, 10 μM, read-out: growth inhibition % (GI%)
BT-549 = experiment: cells; format: cell-based; settings: Homo sapiens; BT-549; 10 μM; read-out: growth inhibition % (GI%)
MALME-3M = experiment: cells; format: cell-based; settings: Homo sapiens; MALME-3M; 10 μM; read-out: growth inhibition % (GI%)
MCF7 = experiment: cells; format: cell-based; settings: Homo sapiens; MCF7; 10 μM; read-out: growth inhibition % (GI%)
NCI/ADR-RES = experiment: cells; format: cell-based; settings: Homo sapiens, 10 μM, read-out: growth inhibition % (GI%)
HL-60(TB) = experiment: cells; format: cell-based; settings: Homo sapiens; HL-60(TB); 10 μM; read-out: growth inhibition % (GI%)
U251 = experiment: cells; format: cell-based; settings: Homo sapiens, U-251; U251; 10 μM; read-out: growth inhibition % (GI%)
SNB-75 = experiment: cells; format: cell-based; settings: Homo sapiens; SNB-75; 10 μM; read-out: growth inhibition % (GI%)
SF-295 = experiment: cells; format: cell-based; settings: Homo sapiens; SF-295; 10 μM; read-out: growth inhibition % (GI%)
CCRF-CEM = experiment: cells; format: cell-based; settings: Homo sapiens, 10 μM, read-out: growth inhibition % (GI%)
T-47D = experiment: cells; format: cell-based; settings: Homo sapiens, T47D; T-47D; 10 μM; read-out: growth inhibition % (GI%)
OVCAR-3 = experiment: NCI 60 cell line antiproliferative screening (SRB), Ovarian cancer; settings: Homo sapiens, OVCAR-3, read-out: growth inhibition % (GI%)
KM12 = experiment: cells; format: cell-based; settings: Homo sapiens; KM12; 10 μM; read-out: growth inhibition % (GI%)
OVCAR-8 = experiment: cells; format: cell-based; settings: Homo sapiens; OVCAR-8; 10 μM; read-out: growth inhibition % (GI%)
[1] = tested on: panel of 60 tumour cell lines; experiment: NCI 60 cell line antiproliferative screening (SRB), whole panel or subpanels (means, ranges, words); format: cell-based, human
SK-MEL-5 = experiment: cells; format: cell-based; settings: Homo sapiens; SK-MEL-5; 10 μM; read-out: growth inhibition % (GI%)
UACC-257 = experiment: cells; format: cell-based; settings: Homo sapiens; UACC-257; 10 μM; read-out: growth inhibition % (GI%)
HCC-2998 = experiment: cells; format: cell-based; settings: Homo sapiens; HCC-2998; 10 μM; read-out: growth inhibition % (GI%)
A498 = experiment: cells; format: cell-based; settings: Homo sapiens; A498; 10 μM; read-out: growth inhibition % (GI%)
SK-MEL-2 = experiment: cells; format: cell-based; settings: Homo sapiens; SK-MEL-2; 10 μM; read-out: growth inhibition % (GI%)
OVCAR-4 = experiment: cells; format: cell-based; settings: Homo sapiens; OVCAR-4; 10 μM; read-out: growth inhibition % (GI%)
SF-268 = experiment: cells; format: cell-based; settings: Homo sapiens; SF-268; 10 μM; read-out: growth inhibition % (GI%)
MDA-MB-468 = experiment: NCI 60 cell line antiproliferative screening (SRB), Breast cancer; settings: Homo sapiens, MDA-MB-468, read-out: growth inhibition % (GI%)
IGROV1 = experiment: cells; format: cell-based; settings: Homo sapiens, IGROV-1; IGROV1; 10 μM; read-out: growth inhibition % (GI%)
HOP-92 = experiment: cells; format: cell-based; settings: Homo sapiens; HOP-92; 10 μM; read-out: growth inhibition % (GI%)
NCI-H460 = experiment: cells; format: cell-based; settings: Homo sapiens; NCI-H460; 10 μM; read-out: growth inhibition % (GI%)
SN12C = experiment: cells; format: cell-based; settings: Homo sapiens, 10 μM, read-out: growth inhibition % (GI%)
EKVX = experiment: cells; format: cell-based; settings: Homo sapiens, 10 μM, read-out: growth inhibition % (GI%)
DU-145 = experiment: cells; format: cell-based; settings: Homo sapiens; DU-145; 10 μM; read-out: growth inhibition % (GI%)
NCI-H226 = experiment: cells; format: cell-based; settings: Homo sapiens; NCI-H226; 10 μM; read-out: growth inhibition % (GI%)
786-0 = experiment: cells; format: cell-based; settings: Homo sapiens; 786-0; 10 μM; read-out: growth inhibition % (GI%)
ACHN = experiment: cells; format: cell-based; settings: Homo sapiens, 10 μM, read-out: growth inhibition % (GI%)
MOLT-4 = experiment: cells; format: cell-based; settings: Homo sapiens; MOLT-4; 10 μM; read-out: growth inhibition % (GI%)
NCI-H522 = experiment: cells; format: cell-based; settings: Homo sapiens; NCI-H522; 10 μM; read-out: growth inhibition % (GI%)
COLO-205 = experiment: cells; format: cell-based; settings: Homo sapiens; COLO-205; 10 μM; read-out: growth inhibition % (GI%)
HOP-62 = experiment: cells; format: cell-based; settings: Homo sapiens; HOP-62; 10 μM; read-out: growth inhibition % (GI%)
SF-539 = experiment: cells; format: cell-based; settings: Homo sapiens; SF-539; 10 μM; read-out: growth inhibition % (GI%)
LOX IMIV = experiment: cells; format: cell-based; settings: Homo sapiens, 60 cell; LOX IMIV; 10 μM; read-out: growth inhibition % (GI%)
SNB-19 = experiment: cells; format: cell-based; settings: Homo sapiens; SNB-19; 10 μM; read-out: growth inhibition % (GI%)
SK-OV-3 = experiment: cells; format: cell-based; settings: Homo sapiens; SK-OV-3; 10 μM; read-out: growth inhibition % (GI%)
OVCAR-5 = experiment: cells; format: cell-based; settings: Homo sapiens; OVCAR-5; 10 μM; read-out: growth inhibition % (GI%)
HCT-116 = experiment: cells; format: cell-based; settings: Homo sapiens; HCT-116; 10 μM; read-out: growth inhibition % (GI%)

Molecule `O=C(CSc1nc2ccccc2c(=O)n1-c1ccc(Cl)cc1)NN=Cc1ccc(Oc2ccc(Br)cc2)cc1` [6e, N'-(4–(4-bromophenoxy)benzylidene)-2-((3–(4-chlorophenyl)-4-oxo-3,4-dihydroquinazolin-2-yl)thio)acetohydrazide] has an inhibition at 10 µM (TK-10) of under 15%, an inhibition at 10 µM (HCT-15) of under 15% and an inhibition at 10 µM (A549/ATCC) of under 15%. For the same molecule, the inhibition at 10 µM (PC-3) was under 15%, the inhibition at 10 µM (NCI-H322M) was under 15% and the inhibition at 10 µM (BT-549) was under 15%. For the same molecule, the inhibition at 10 µM (MALME-3M) was under 15%, the inhibition at 10 µM (MCF7) was under 15% and the inhibition at 10 µM (NCI/ADR-RES) was under 15%. It also gave an inhibition at 10 µM (HL-60(TB)) of under 15%, an inhibition at 10 µM (U251) of under 15% and an inhibition at 10 µM (SNB-75) of under 15%. For the same molecule, the inhibition at 10 µM (SF-295) was under 15%, the inhibition at 10 µM (CCRF-CEM) was under 15% and the inhibition at 10 µM (T-47D) was under 15%. For the same molecule, the inhibition at 10 µM (OVCAR-3) was under 15%, the inhibition at 10 µM (KM12) was under 15% and the inhibition at 10 µM (OVCAR-8) was under 15%. The “antiproliferative activity against all tested cell lines” value ([1]; 10 μM single dose) was “abolishing the antiproliferative activity”, the inhibition at 10 µM ([1]; Homo sapiens, 60 cell, mean over the cell line panel, 10 μM, read-out: Mean growth inhibition % (mean GI%)) was under 0% and the inhibition at 10 µM (SK-MEL-5) was under 15%. For the same molecule, the inhibition at 10 µM (UACC-257) was under 15%, the inhibition at 10 µM (HCC-2998) was under 15% and the inhibition at 10 µM (A498) was 15.7%. For the same molecule, the inhibition at 10 µM (SK-MEL-2) was under 15%, the inhibition at 10 µM (OVCAR-4) was under 15% and the inhibition at 10 µM (SF-268) was under 15%. For the same molecule, the inhibition at 10 µM (MDA-MB-468) was under 15%, the inhibition at 10 µM (IGROV1) was under 15% and the inhibition at 10 µM (HOP-92) was under 15%. For the same molecule, the inhibition at 10 µM (NCI-H460) was under 15%, the inhibition at 10 µM (SN12C) was under 15% and the inhibition at 10 µM (EKVX) was under 15%. For the same molecule, the inhibition at 10 µM (DU-145) was under 15%, the inhibition at 10 µM (NCI-H226) was under 15% and the inhibition at 10 µM (786-0) was under 15%. For the same molecule, the inhibition at 10 µM (ACHN) was under 15%, the inhibition at 10 µM (MOLT-4) was under 15% and the inhibition at 10 µM (NCI-H522) was 13.4%. It also gave an inhibition at 10 µM (COLO-205) of under 15%, an inhibition at 10 µM (HOP-62) of under 15% and an inhibition at 10 µM (SF-539) of under 15%. For the same molecule, the inhibition at 10 µM (LOX IMIV) was under 15%, the inhibition at 10 µM (SNB-19) was under 15% and the inhibition at 10 µM (SK-OV-3) was under 15%. It also gave an inhibition at 10 µM (OVCAR-5) of under 15% and an inhibition at 10 µM (HCT-116) of under 15%.
